Laboratory results as given in PMC4646021, “Streptococcus pneumoniae NanC” (The Journal of Biological Chemistry, 2015).

Key:
NanC (scheme A) = molecular target: T1, NanC (scheme A) (Streptococcus pneumoniae, UniProt A0A0H2UQE4); assay: X-ray crystal structure, soak; type: binding
T1 construct: gene SP_1326; residues 28-740, signal peptide removed (CBM plus catalytic domain); pET21b, E. coli Rosetta (DE3), nickel column; 82 kDa

NanC CBM = molecular target: T2, NanC CBM (Streptococcus pneumoniae, UniProt A0A0H2UQE4); assay: isothermal titration calorimetry; type: binding; conditions: 20 mM Tris pH 8, 50 mM NaCl; stoichiometry fixed 1:1; CBM site
T2 construct: gene SP_1326; purified by scheme A
T2 sequence (A0A0H2UQE4 entry or part of it): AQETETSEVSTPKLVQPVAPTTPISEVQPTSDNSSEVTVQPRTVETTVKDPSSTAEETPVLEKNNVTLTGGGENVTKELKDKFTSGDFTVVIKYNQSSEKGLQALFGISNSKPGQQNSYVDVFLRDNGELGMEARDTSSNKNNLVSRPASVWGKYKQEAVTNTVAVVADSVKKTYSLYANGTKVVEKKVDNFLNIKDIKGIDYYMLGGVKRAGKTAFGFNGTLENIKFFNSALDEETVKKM

T1 sequence (A0A0H2UQE4 entry or part of it): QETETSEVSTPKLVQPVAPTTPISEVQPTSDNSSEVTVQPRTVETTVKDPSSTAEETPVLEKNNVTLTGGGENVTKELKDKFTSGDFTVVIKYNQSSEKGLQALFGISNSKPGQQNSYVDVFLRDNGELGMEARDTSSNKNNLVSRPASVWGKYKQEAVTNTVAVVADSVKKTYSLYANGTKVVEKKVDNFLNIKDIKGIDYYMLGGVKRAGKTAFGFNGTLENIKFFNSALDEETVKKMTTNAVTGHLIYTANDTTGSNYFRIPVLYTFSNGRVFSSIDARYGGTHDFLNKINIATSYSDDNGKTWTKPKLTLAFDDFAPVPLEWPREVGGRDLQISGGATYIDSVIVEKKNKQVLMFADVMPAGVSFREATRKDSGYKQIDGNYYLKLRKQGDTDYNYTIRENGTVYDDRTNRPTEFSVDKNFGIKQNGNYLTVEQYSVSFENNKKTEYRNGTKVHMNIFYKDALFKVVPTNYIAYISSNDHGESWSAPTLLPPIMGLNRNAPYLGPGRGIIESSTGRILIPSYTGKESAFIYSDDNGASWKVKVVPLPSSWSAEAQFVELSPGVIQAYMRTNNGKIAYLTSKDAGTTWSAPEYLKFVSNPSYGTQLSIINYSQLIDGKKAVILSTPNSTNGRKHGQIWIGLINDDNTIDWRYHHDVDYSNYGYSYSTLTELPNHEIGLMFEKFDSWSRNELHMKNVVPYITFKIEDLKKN

Row | SMILES | Kd (NanC CBM) [µM] | other results
1 | CCC(CC)O[C@@H]1C=C(C(=O)O)C[C@H](N)[C@H]1NC(C)=O [OC] |  | X-ray crystal structure, soak (NanC (scheme A); catalytic active site, 20 mM, 5 min soak): OC binds in the NanC active site
2 | CC(=O)N[C@H]1[C@H]([C@H](O)[C@H](O)CO)O[C@@](O[C@H]2[C@@H](O)[C@@H](CO)O[C@@H](O[C@H]3[C@H](O)[C@@H](O)C(O)O[C@@H]3CO)[C@@H]2O)(C(=O)O)C[C@@H]1O (stereo partly shown) [3′SL] | 1480 | 
3 | CC(=O)N[C@H]1[C@H]([C@H](O)[C@H](O)CO)OC(F)(C(=O)O)C(F)[C@@H]1O (stereo partly shown) [2,3F-Neu5Ac] |  | X-ray crystal structure, soak (NanC (scheme A); covalent, active site Tyr-695 adduct 3F-β-Neu5Ac, 5 mM, 45 min soak, intact compound also in CBM site): 3F-β-Neu5Ac was covalently bound to Tyr-695 in an unstrained
4 | CC(=O)N[C@H]1[C@H]([C@H](O)[C@H](O)CO)O[C@@](OC[C@H]2O[C@@H](O[C@H]3[C@H](O)[C@@H](O)C(O)O[C@@H]3CO)[C@H](O)[C@@H](O)[C@H]2O)(C(=O)O)C[C@@H]1O (stereo partly shown) [6′SL] | 1600 | 
